Assay results taken from article PMC10766964, “Copper-catalyzed synthesis of pyrazolo[1,5-a]pyrimidine based triazole-linked glycohybrids: mechanistic insights and bio-applications” (Scientific Reports, 2024).

How the values were obtained:
[1] = MTT cell viability assay in normal MCF-10A cells; type: cell-based; details: human, MCF-10A normal mammary epithelial cells, MCF-10A normal cells, read-out: Cell viability (%) ± SD
Protocol: (§1) We also included normal mammary epithelial MCF-10A cells in our experiments to confirm if the growth-inhibitory activities of the selected compounds are truly cancer cell-specific. The activity data from MCF-7 and MDA-MB-453 cell lines (tested at 1 µM, 10 µM and 25 µM) and activity data from MCF-10A cell line (tested at 25 µM, 50 µM and 100 µM) are summarized in Table 3. To evaluate cell viability, the MTT assay was conducted following standard procedures. After 72 h of cell incubation with or without each compound, cell viability was assessed using MTT (3-(4,5-dimethylthiazol-2-yl)-2,5-diphenyltetrazolium bromide), which is a colorimetric method for determining the number of viable cells in various assays including proliferation, cytotoxicity, or chemosensitivity. The MTT reagent was added to the cells after removal of the medium and incubated for 3 h at 37 °C in the CO2 incubator. The formazan product, which is […] in the tissue culture medium, was dissolved in DMSO, and the absorbance of the formazan product was directly measured at 595 nm using a multimode plate reader without additional processing. The absorbance values are directly proportional to the number of viable cells in culture. The percentage of viable cells in each group was determined relative to the untreated control cells.

[2] = tested on: normal mammary epithelial MCF-10A cells; test: MTT cell viability assay in normal MCF-10A cells; type: cell-based; details: tested at 25 µM, 50 µM and 100 µM
Protocol: as §1

| SMILES | viability at 72 h, 25 µM [1] [%] | viability at 72 h, 50 µM [1] [%] | viability at 72 h, 100 µM [1] [%] | growth inhibitory activity against normal breast epithelial cell (MCF-10A) (in words) [2] |
| --- | --- | --- | --- | --- |
| CC(=O)OC[C@H]1O[C@@H](n2cc(COc3cc(-c4ccc(C)cc4)nc4ccnn34)nn2)[C@H](OC(C)=O)[C@@H](OC(C)=O)[C@@H]1OC(C)=O [Compound 9a, (2R,3R,4S,5R,6R)-2-(acetoxymethyl)-6-(4-(((5-(p-tolyl)pyrazolo[1,5-a]pyrimidin-7-yl)oxy)methyl)-1H-1,2,3-triazol-1-yl)tetrahydro-2H-pyran-3,4,5-triyl triacetate] | 88.6 ± 1.5 | 84.3 ± 2.9 | 84.2 ± 3 | none of these compounds did have any growth inhibitory activity |
| CC(=O)OC[C@H]1O[C@@H](n2cc(COc3cc(-c4ccc(Cl)cc4)nc4ccnn34)nn2)[C@H](OC(C)=O)[C@@H](OC(C)=O)[C@@H]1OC(C)=O [Compound 9d, (2R,3R,4S,5R,6R)-2-(acetoxymethyl)-6-(4-(((5-(4-chlorophenyl)pyrazolo[1,5-a]pyrimidin-7-yl)oxy)methyl)-1H-1,2,3-triazol-1-yl)tetrahydro-2H-pyran-3,4,5-triyl triacetate] | 87.8 ± 2.8 | 85.6 ± 0.7 | 82 ± 1.5 | none of these compounds did have any growth inhibitory activity |
| CC(=O)OC[C@H]1O[C@@H](n2cc(COc3cc(-c4ccc5ccccc5c4)nc4ccnn34)nn2)[C@H](OC(C)=O)[C@@H](OC(C)=O)[C@@H]1OC(C)=O [Compound 9h, (2R,3R,4S,5R,6R)-2-(acetoxymethyl)-6-(4-(((5-(naphthalen-2-yl)pyrazolo[1,5-a]pyrimidin-7-yl)oxy)methyl)-1H-1,2,3-triazol-1-yl)tetrahydro-2H-pyran-3,4,5-triyl triacetate] | 86.8 ± 5.3 | 88.8 ± 3 | 68.5 ± 3.4 | none of these compounds did have any growth inhibitory activity |
| CC(=O)OC[C@H]1O[C@@H](n2cc(COc3cc(-c4ccc(Cl)cc4)nc4ccnn34)nn2)[C@H](OC(C)=O)[C@@H](OC(C)=O)[C@H]1OC(C)=O [Compound 10d, (2R,3S,4S,5R,6R)-2-(acetoxymethyl)-6-(4-(((5-(4-chlorophenyl)pyrazolo[1,5-a]pyrimidin-7-yl)oxy)methyl)-1H-1,2,3-triazol-1-yl)tetrahydro-2H-pyran-3,4,5-triyl triacetate] | 89.6 ± 2.2 | 85.6 ± 1.7 | 84.4 ± 2.6 | none of these compounds did have any growth inhibitory activity |
| CC(=O)OC[C@H]1O[C@@H](n2cc(COc3cc(-c4ccc(C(F)(F)F)cc4)nc4ccnn34)nn2)[C@H](OC(C)=O)[C@@H](OC(C)=O)[C@H]1OC(C)=O [Compound 10f, (2R,3S,4S,5R,6R)-2-(acetoxymethyl)-6-(4-(((5-(4-(trifluoromethyl)phenyl)pyrazolo[1,5-a]pyrimidin-7-yl)oxy)methyl)-1H-1,2,3-triazol-1-yl)tetrahydro-2H-pyran-3,4,5-triyl triacetate] | 86.6 ± 1.5 | 88.1 ± 2.8 | 84.2 ± 3 | none of these compounds did have any growth inhibitory activity |
| CC(=O)OC[C@H]1O[C@H](n2cc(COc3cc(-c4ccc(C(C)C)cc4)nc4ccnn34)nn2)[C@@H](OC(C)=O)[C@@H](OC(C)=O)[C@@H]1OC(C)=O [Compound 11g, (2R,3R,4S,5S,6S)-2-(acetoxymethyl)-6-(4-(((5-(4-isopropylphenyl)pyrazolo[1,5-a]pyrimidin-7-yl)oxy)methyl)-1H-1,2,3-triazol-1-yl)tetrahydro-2H-pyran-3,4,5-triyl triacetate] | 89.8 ± 2.8 | 84.2 ± 5.8 | 88 ± 1.5 | none of these compounds did have any growth inhibitory activity |
